Calls of active or inactive are those of the source. The calls are words filed in the database; no cut-off is given here.
Experiments:
[1] = tested on: Enterococcus faecium; experiment: Antibacterial activity against Enterococcus faecium CCARM 5203 assessed as reduction in bacterial growth at 12.5 ug/ml incubated for 18 hrs by serial dilution method relative to control; format: functional
[2] = tested on: Enterococcus faecium; experiment: Antibacterial activity against Enterococcus faecium CCARM 5203 assessed as inhibition zone at 10 mg/ml incubated for 18 hrs by radial diffusion assay; format: functional, organism-based
[3] = tested on: Escherichia coli; experiment: Antibacterial activity against Escherichia coli CCARM 1009 assessed as inhibition zone at 10 mg/ml incubated for 18 hrs by radial diffusion assay; format: functional, organism-based
[4] = tested on: Salmonella typhimurium; experiment: Antibacterial activity against Salmonella typhimurium CCARM 8250 assessed as inhibition zone at 10 mg/ml incubated for 18 hrs by radial diffusion assay; format: functional, organism-based; conditions: Salmonella enterica subsp. enterica serovar Typhimurium

Row | Structure (SMILES) | growth inhibition (GI) [1] | inhibition zone (IZ) [2] | inhibition zone (IZ) [3] | inhibition zone (IZ) [4] | inhibition of growth at 12.5 µg/mL ([1]; CCARM 5203, 18 h, read-out: GI)
1 | C/C(=C/C=C/C=C/C(C)C(=O)O)NC(=O)CC(O)\C(C)=C/C=C\C=C(C)\C=C\C=C/CCCNC(=O)C(O)CC(C)C (centres undefined) | Active |  |  |  | 
2 | C/C(=C/C=C/C=C/C(C)C(=O)O)NC(=O)CC(O)\C(C)=C/C=C\C=C(C)\C=C\C=C/C=C/CNC(=O)C(O)CC(C)C (centres undefined) |  | Active | Active | Active | > 80%
3 | C/C(=C/C=C/C=C/C(C)C(=O)O)NC(=O)CC(O)\C(C)=C/C=C\C=C(C)\C=C\C=C/C=C/CNC(=O)C(CC(C)C)O[C@@H]1O[C@H](CO)[C@@H](O)[C@H](O)[C@H]1O (some centres undefined) | inactive | inactive | inactive | inactive | 
4 | C/C(=C/C=C/C=C/C(C)C(=O)O)NC(=O)CC(O)\C(C)=C/C=C\C=C(C)\C=C\C=C\CCCNC(=O)C(CC(C)C)O[C@@H]1O[C@H](CO)[C@@H](O)[C@H](O)[C@H]1O (some centres undefined) |  | inactive | inactive | inactive | 
5 | C/C(=C/C=C/C=C/C(C)C(=O)O[C@@H]1O[C@H](CO)[C@@H](O)[C@H](O)[C@H]1O)NC(=O)CC(O)\C(C)=C/C=C\C=C(C)\C=C\C=C/C=C/CNC(=O)C(O)CC(C)C (some centres undefined) |  | inactive | inactive | inactive | 
6 | C/C(=C/C=C/C=C/C(C)C(=O)O)NC(=O)CC(O)\C(C)=C/C=C\C=C(C)\C=C\C=C/CCCNC(=O)C(CC(C)C)O[C@@H]1O[C@H](CO)[C@@H](O)[C@H](O)[C@H]1O (some centres undefined) | inactive | inactive | inactive | inactive | 

— ChEMBL document CHEMBL4414664, “An Effective Strategy for Identification of Highly Unstable Bacillaenes” (2019)
